Test results published in US8624053B2, “Method to produce a stable dry ionic-bonded creatine α ketoglutarate of high oral absorbability” (priority 2012, dated 2014).

System: athletes
Settings: about half the dose provided from other preparations
Text: (The actual dose depended on the athlete.)
The performance evaluations were made by experienced coaches, overlooking standard athletic tasks.

creatine α-ketoglutarate [product of the invention]
time after delivery to peak performance: ten
